Results taken from patent US8283358B2, “N-sulfonamido polycyclic pyrazolyl compounds” (Elan Pharmaceuticals, Inc., priority 2008, dated 2012).
Read-outs that look alike come from different tables or passages of the source.

Molecular target: T1, gamma-secretase (partially purified extract of IMR-32 cell membranes; substrate MBP-C125 Swe fusion protein, cleavage at the Aβ40 site) (Homo sapiens, UniProt P49768)
T1 construct: a partially purified extract of IMR-32 cell membranes as the gamma-secretase enzyme preparation; endogenous in cells; host or cells: IMR-32 cell membranes, partially purified extract
Experiment: Gamma-secretase APP enzyme assay (Example A)
Assay type: biochemical
Settings: assay described in Example A
From the text: The gamma-secretase APP enzyme assay was designed to measure the specific proteolytic cleavage of an APP substrate (MBP-C125 Swe fusion protein) at the Aβ40 site. […] This assay involved two steps beginning with the enzymatic reaction generating a cleavage product that was captured with an immobilized antibody specific for the neo-epitope Aβ40 site. The captured cleavage product was then detected in a sandwich ELISA assay with a biotinylated reporter antibody that is specific to Aβ(17-28). Streptavidin-linked alkaline phosphatase was then added that would generate a fluorescent signal proportional to the amount of cleavage product.
This warmed solution of BigCHAPS (N,N-Bis(3-D-gluconamidopropyl)cholamide) detergent was used to dissolve Brain Extract Type-V (lipid containing a minimum of 40% phosphatidylethanolamine) from Sigma (St. Louis, Mo.) to a concentration of 8 mg/ml. This solution containing BigCHAPS and lipid at 8 mg/ml is then diluted to 0.53 mg/ml lipid with a pre-warmed solution of Hepes and sodium chloride.
Gamma-secretase was then added to a 96-well micro-titre plate and then incubated with various concentrations of inhibitor for 30 minutes at 37° C. MBPC125 substrate was then added to initiate the reaction that would run for two hours at 37° C. The reaction was quenched with the addition of SDS to a final concentration of 0.1% and then 100 μl of the reaction mixture was transferred to a capture ELISA plate and incubated overnight at 4° C. Detection of the cleavage product was performed using a standard sandwich ELISA assay and quantified using a six point standard curve.

[1] = class symbols, read-out: γAPP IC50

IC50 [1]	SMILES	further results
< 100 nM	Cc1noc(-c2cccc3c2C2Cc4[nH]ncc4C3N2S(=O)(=O)c2ccc(C(F)(F)F)nc2)n1 (stereo not shown) [compound 234]	–
< 100 nM	O=S(=O)(c1ccc(C(F)(F)F)cc1)N1C2Cc3cccc(F)c3C1c1cn[nH]c1C2 (racemic) [compound 182]	–
> 1000 nM	O=S(=O)(c1ccc(C(F)(F)F)nc1)N1C2c3c[nH]nc3[C@H](O)C1c1c(F)cccc12 (stereo partly shown) [compound 239]	–
< 100 nM	O=S(=O)(c1ccc(C(F)(F)F)cc1)N1C2c3c[nH]nc3C(F)(F)C1c1cccc(F)c12 (stereo not shown) [compound 128]	–
< 100 nM	O=S(=O)(c1ccc(C(F)(F)F)nc1)N1C2Cc3[nH]ncc3C1c1cc(Cl)ccc12 (racemic) [compound 219]	–
< 100 nM	O=S(=O)(c1ccc(C(F)(F)F)cc1)N1C2Cc3ccccc3C1c1cn[nH]c1C2 (racemic) [compound 164]	–
500 to 999 nM	O=S(=O)(c1ccc(C(F)(F)F)nc1)N1C2Cc3n[nH]cc3C1c1cccc(F)c12 (single isomer, unassigned) [compound 184]	–
< 100 nM	O=S(=O)(c1ccc(C(F)(F)F)cc1)N1C2Cc3[nH]ncc3C1c1cc(C(F)(F)F)ccc12 (racemic) [compound 155]	–
< 100 nM	O=C1c2n[nH]cc2C2c3cc(F)c(F)cc3C1N2S(=O)(=O)c1ccc(C(F)(F)F)cc1 (stereo not shown) [compound 69]	–
< 100 nM	O=S(=O)(c1ccc(C(F)(F)F)nc1)N1C2Cc3[nH]ncc3C1c1cccc(-c3ccc(F)cc3)c12 (racemic) [compound 266]	–
< 100 nM	O=S(=O)(c1ccc(C(F)(F)F)nc1)N1C2Cc3cccc(Br)c3[C@@H]1Cc1n[nH]cc12 [compound 212]	–
500 to 999 nM	Cn1cc(C2CC3Cc4[nH]ncc4C(C2)N3S(=O)(=O)c2ccc(Cl)cc2)nn1 (single isomer, unassigned) [compound 138]	–
< 100 nM	O=S(=O)(c1ccc(C(F)(F)F)cc1)N1C2Cc3[nH]ncc3C1c1cccc(F)c12 (racemic) [compound 97]	–
> 1000 nM	COC(=O)c1ccc2c(c1)C1c3cn[nH]c3CC2N1S(=O)(=O)c1ccc(C(F)(F)F)nc1 (racemic) [compound 194]	–
–	O=S(=O)(c1ccc(C(F)(F)F)nc1)N1C2Cc3n[nH]cc3C1c1c(F)cccc12 (stereo not shown) [compound 130]	IC50 (γAPP IC50 (nM), class symbols): < 100 nM
< 100 nM	O=C1c2[nH]ncc2C2c3ccccc3C1N2S(=O)(=O)c1ccc(C(F)(F)F)cc1 (stereo not shown) [compound 173]	–
100 to 499 nM	O=S(=O)(c1ccc(C(F)(F)F)nc1)N1C2Cc3[nH]ncc3C1c1cccc(Cl)c12 (stereo not shown) [compound 229]	–
500 to 999 nM	O=S(=O)(c1ccc(C(F)(F)F)nc1)N1C2Cc3[nH]ncc3C1c1c(Cl)cccc12 (single isomer, unassigned) [compound 232]	–
> 1000 nM	O=S(=O)(c1ccc(Cl)cc1)N1C2Cc3[nH]ncc3C1c1c(F)cccc12 (single isomer, unassigned) [compound 230]	–
< 100 nM	Cn1nncc1C1CC2Cc3[nH]ncc3C(C1)N2S(=O)(=O)c1ccc(Cl)cc1 (racemic) [compound 136]	–
< 100 nM	O=S(=O)(c1ccc(C(F)(F)F)cc1)N1C2Cc3[nH]ncc3C1c1cc3c(cc12)OCO3 (racemic) [compound 91]	–
< 100 nM	O=S(=O)(c1ccc(C(F)(F)F)nc1)N1C2/C(=N/O)c3[nH]ncc3C1c1cccc(Cl)c12 (stereo not shown) [compound 265]	–
< 100 nM	CC(=O)Nc1ccc(C2CC3Cc4[nH]ncc4C(C2)N3S(=O)(=O)c2ccc(C(F)(F)F)cc2)cc1 (racemic) [compound 152]	–

IC50 [1]	SMILES	further results
> 1000 nM	Cc1noc(-c2ccc3c(c2)C2c4cn[nH]c4CC3N2S(=O)(=O)c2ccc(C(F)(F)F)nc2)n1 (stereo not shown) [compound 202]	–
< 100 nM	O=C1CCCN1c1ccc(C2CC3Cc4n[nH]cc4C(C2)N3S(=O)(=O)c2ccc(C(F)(F)F)cc2)cc1 (stereo not shown) [compound 141]	–
< 100 nM	O=S(=O)(c1ccc(C(F)(F)F)cc1)N1C2Cc3cccc(F)c3C1Cc1n[nH]cc12 (racemic) [compound 181]	–
< 100 nM	O=S(=O)(c1ccc(C(F)(F)F)nc1)N1C2Cc3[nH]ncc3C1c1cc(F)ccc12 (racemic) [compound 176]	–
500 to 999 nM	O=S(=O)(c1ccc(C(F)(F)F)cc1)N1C2Cc3[nH]ncc3C1c1ncccc12 (single isomer, unassigned) [compound 102]	–
< 100 nM	O=S(=O)(c1ccc(C(F)(F)F)cc1)N1C2Cc3[nH]ncc3C1CC(c1cccc(-n3ccnc3)c1)C2 (stereo not shown) [compound 132]	–
< 100 nM	O=S(=O)(c1ccc(C(F)(F)F)nc1)N1C2Cc3[nH]ncc3C1c1c(Cl)cccc12 (single isomer, unassigned) [compound 233]	–
–	O=S(=O)(c1ccc(C(F)(F)F)nc1)N1C2Cc3n[nH]cc3C1c1ncsc12 (stereo not shown) [compound 189]	IC50 (γAPP IC50 (nM), class symbols): 100 to 499 nM
< 100 nM	O=S(=O)(c1ccc(F)cc1)N1C2Cc3[nH]ncc3C1c1c(F)cccc12 (racemic) [compound 210]	–
< 100 nM	O=S(=O)(c1ccc(C(F)(F)F)nc1)N1C2c3cn[nH]c3C(F)(F)C1c1c(F)cccc12 (stereo not shown) [compound 215]	–
–	O=S(=O)(c1ccc(C(F)(F)F)nc1)N1C2Cc3[nH]ncc3C1c1ncc(F)cc12 (racemic) [compound 258]	IC50 (γAPP IC50 (nM), class symbols): < 100 nM
< 100 nM	O=C1CCN1c1ccc(C2CC3Cc4[nH]ncc4C(C2)N3S(=O)(=O)c2ccc(C(F)(F)F)cc2)cc1 (racemic) [compound 153]	–
< 100 nM	Cc1cc(F)cc2c1C1c3c[nH]nc3CC2N1S(=O)(=O)c1ccc(C(F)(F)F)nc1 (racemic) [compound 151]	–
> 1000 nM	O=S(=O)(c1ccc(C(F)(F)F)nc1)N1C2Cc3[nH]ncc3C1c1cc(C3CC3)ccc12 (single isomer, unassigned) [compound 246]	–
< 100 nM	O=C1c2[nH]ncc2C2c3cccc(Cl)c3C1N2S(=O)(=O)c1ccc(C(F)(F)F)nc1 (racemic) [compound 264]	–
< 100 nM	O=S(=O)(c1ccc(C(F)(F)F)cc1)N1C2Cc3cccc(F)c3C1Cc1n[nH]cc12 (stereo not shown) [compound 191]	–
100 to 499 nM	O=S(=O)(c1ccc(C(F)(F)F)cc1)N1C2C=C(c3ccc(F)cc3)C1c1cn[nH]c1C2 (racemic) [compound 59]	–
–	Cc1cc(F)cc2c1C1c3c[nH]nc3CC2N1S(=O)(=O)c1ccc(C(F)(F)F)nc1 (stereo not shown) [compound 158]	IC50 (numeric bounds given instead of class symbols, read-out: γAPP IC50): > 10 nM
< 100 nM	O=S(=O)(c1ccc(C(F)(F)F)nc1)N1C2Cc3[nH]ncc3C1c1cc(Cl)ccc12 (stereo not shown) [compound 222]	–
100 to 499 nM	Cc1noc(-c2cccc3c2C2Cc4[nH]ncc4C3N2S(=O)(=O)c2ccc(C(F)(F)F)nc2)n1 (stereo not shown) [compound 235]	–
> 1000 nM	Cn1cc(C2CC3Cc4[nH]ncc4C(C2)N3S(=O)(=O)c2ccc(Cl)cc2)nn1 (single isomer, unassigned) [compound 137]	–
< 100 nM	O=C1c2n[nH]cc2C2c3cc(F)c(F)cc3C1N2S(=O)(=O)c1ccc(C(F)(F)F)nc1 (stereo not shown) [compound 148]	–
< 100 nM	O=S(=O)(c1ccc(C(F)(F)F)cc1)N1C2c3c[nH]nc3C(F)(F)C1c1cccc(F)c12 (stereo not shown) [compound 123]	–

SMILES	IC50 [1]	further results
O=S(=O)(c1ccc(C(F)(F)F)nc1)N1C2Cc3[nH]ncc3C1c1cc(-c3ccc(F)cc3)ccc12 (single isomer, unassigned) [compound 244]	> 1000 nM	–
O=S(=O)(c1ccc(C(F)(F)F)cc1)N1C2Cc3[nH]ncc3C1CC(c1cccc(-n3cccn3)c1)C2 (stereo not shown) [compound 133]	< 100 nM	–
O=S(=O)(c1ccc(C(F)(F)F)nc1)N1C2Cc3[nH]ncc3C1CC(c1ccc3c(c1)OCO3)C2 (stereo not shown) [compound 108]	< 100 nM	–
